Results on five compounds are retold here after patent publication US20260183297A1, “SELECTION OF PATIENTS FOR THE TREATMENT OF FADS1-MEDIATED DISEASES OR DISORDERS USING FADS-1 INHIBITORS” (AMGEN INC., priority 2022, published 2026).

Like-named read-outs stand apart in the source and are kept apart here.

Experiment [1] addresses T1, FADS1 (Mus musculus, UniProt Q920L1).
T1 construct: Liver from ^13C5-DGLA dosed DIO mice was collected for pharmacodynamic (PD) analysis; from tissue; host or cells: living DIO C57Bl/6 mice; 13C5-DGLA to 13C5-AA conversion read in liver (A4) or blood plasma (A5)
T1 sequence (Q920L1 1-447): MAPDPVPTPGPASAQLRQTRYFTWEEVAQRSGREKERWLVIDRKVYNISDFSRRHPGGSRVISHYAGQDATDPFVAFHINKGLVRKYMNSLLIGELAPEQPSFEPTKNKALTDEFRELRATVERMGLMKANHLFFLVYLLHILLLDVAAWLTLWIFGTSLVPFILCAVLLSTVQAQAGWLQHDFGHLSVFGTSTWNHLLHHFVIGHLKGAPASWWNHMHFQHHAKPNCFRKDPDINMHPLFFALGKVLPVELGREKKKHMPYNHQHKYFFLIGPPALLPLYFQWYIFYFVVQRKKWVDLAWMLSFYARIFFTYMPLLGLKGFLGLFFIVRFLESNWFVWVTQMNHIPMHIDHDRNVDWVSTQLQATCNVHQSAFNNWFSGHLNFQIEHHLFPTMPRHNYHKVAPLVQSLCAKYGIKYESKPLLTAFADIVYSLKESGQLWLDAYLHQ
Description: In vivo FADS1 activity measurement using the liver (13C5-DGLA to 13C5-AA conversion). Particulars: DIO mice, single oral dose 30 mg/kg, 24 hours after dosing; for inhibition at 30 mg/kg: mouse, read-out: Liver Avg % Inhibition. The procedure: Mice were then dosed by intraperitoneal injection with a solution comprising of a mixture of 0.1 ml solution of ^13C5-DGLA (2 mM in 18.42 mM Na2CO3 buffer). Necropsy were performed at 30 minutes post ^13C5-DGLA dosing. Liver from ^13C5-DGLA dosed DIO mice was collected for pharmacodynamic (PD) analysis and EDTA plasma was collected for compound exposure determination. For PD analysis, 150 mg of frozen liver tissue were premixed with ALA-D14 as an internal standard. Liver samples were homogenized and extracted twice with chloroform/methanol (2:1) solution. The organic phases for the two extractions were pooled and evaporated to dryness under nitrogen gas. The liver extract was resuspended in 200 μl 2N NaOH and saponified at 65° C. for 1 hour. After cooling to room temperature, 100 μl of formic acid was added and the mixture was subjected to two consecutive extractions with a chloroform:methanol (2:1) solution. The pooled organic phases were evaporated to dryness under nitrogen gas and resuspended in a solution containing acetonitrile and methanol at a ratio of 1:1. The extracts were then analyzed by LC/MS/MS for the following analytes: ^13C5-DGLA, ^13C5-AA, with ALA-d14 as the internal standard. The sample (20 μl) was injected onto a Poroshell 120 EC-C18 3.0×50 mm, 1.9 μm id column (Agilent, Santa Clara, CA). The analyte peak areas were quantified using the Analyst software (SCIEX, Framingham, […]). The residual in vivo FADS1 activity was calculated by taking the percent of substrate to product conversion normalized to the vehicle group to determine the percent of control (POC) and the percent inhibition relative to control (vehicle).
To determine the degree of FADS1 inhibition, the in vivo FADS1 activity as the percent of conversion calculated using the following equation: […]
The data were then normalized to the vehicle group to determine the percent of inhibition relative to control (vehicle) by the following equation: […]
To calculate the in vivo potency, dose response graphs were generated by plotting the plasma concentration of the test compound determined from the PK analysis on the abscissa, against the percent of control (POC, relative to vehicle) of the FADS1 activity for each mouse. The data points were then fitted by using the log(inhibitor) vs response nonlinear regression algorithm using GraphPad Prism (version 8.4.3, San Diego CA) to calculate the in vivo IC50 (total).
Free (unbound) IC50 and IC90 values were calculated by first calculating the unbound compound concentration in the plasma by multiplying the plasma concentration of test compound with the fraction unbound (fu) value in mouse plasma determined in the plasma protein binding study. A dose response curve was used to determine the unbound IC50 and IC90 by plotting the unbound plasma concentration of the compound on the abscissa, against the percent of control (POC, relative to vehicle) of FADS1 activity for each mouse. The data points were then fitted with a log (inhibitor) versus response nonlinear regression algorithm using GraphPad Prism (version 8.4.3, San Diego, CA) to calculate the in vivo IC50 (Free).

The target of experiment [2] is T1, FADS1. The experiment in a line: In vivo FADS1 activity measurement using blood plasma (13C5-DGLA to 13C5-AA conversion). As to conditions: for Plasma Avg % Conversion / inhibition at 30 mg/kg: DIO mice, single oral dose 30 mg/kg, 24 hours after dosing. The procedure:
FADS1 activity in the presence of Compounds B-E was also measured using blood plasma (in addition to using the liver). The above procedures were perforned to measure the in vivo activity of FADS1 using the liver. The following general procedures were used to measure FADS1 activity using blood plasma. Diet-induced obese (DIO) mice that were on 12 weeks of high fat diet were used to determine the pharmacokinetic (PK) and pharmacodynamic (PD) properties of test compounds. To determine the target coverage at 24 hours after dosing with a test compound (e.g., Compounds B-E, shown below), mice were IP dosed with 0.1 ml solution of ^13C5-DGLA (2 mM in 18.42 mM Na2CO3 buffer). Necropsy were performed at 30 minutes post ^13C5-DGLA dosing. EDTA Plasma was collected for PK and PD analysis.
For PD analysis, 50 μl of plasma or standards (pooled untreated mouse plasma with ^13C5-DGLA and ^13C5-AA added at concentration of 4.57 nM to 10 uM) were mixed with 10 μl of 90% methanol and 10 μl of 50 μg/mL of ALA-D14 as an internal standard (100 μM alpha-linolenic acid-d14 (ALA-d14, Cayman Chemical)) in a 96 well plate. 490 μl of chloroform:methanol (2:1) were added to each well. Plates were plated on a shaker for 5 min prior to adding 66.5 μl water. The plates were shaken for another 5 minutes, followed by centrifugation at 2000 RPM for 5 minutes. The bottom organic layer was transferred to a clean 96 well plate. 333 ul of chloroform:methanol (2:1) were added to the to the remaining liquid phase in the original plate. After 5 min of shaking, the plate was centrifuged at 2000 RPM for 5 minutes. The bottom layer was collected and combined with the first bottom layer. The combined layers were evaporated to dryness under a constant stream of nitrogen gas. After the plate has been dried, 100 μl of 2N NaOH was added to the mixture for subsequent saponification at 65° C. for 1 hour. The samples were then cooled to room temperature and the mixture was then acidified with 50 μl of formic acid followed by two consecutive chloroform:methanol (2:1) extractions. 500 μl of Chloroform:methanol (2:1) was added and the mixture thoroughly mixed by shaking. The plate was then centrifuged at 2,000 rpm for 5 min. The bottom chloroform phase was transferred to a new 2 mL 96 well plate and the remaining aqueous layer was extracted with another 250 μl of chloroform:methanol (2:1). The organic extracts were combined, and the solvent was evaporated to dryness by placing the plate under nitrogen. Extracts were then dissolved in 200 μl of acetonitrile/methanol (1:1). The plate was placed on a shaker for 30 minutes to ensure thorough mixing and dissolution of the extracted fatty acids. The plate was then centrifuged at 2000 RPM for 5 minutes. 80 μl of the samples were transferred to a new 96 well polypropylene plate for analysis on a LC-MS/MS for the following analytes: ^13C5-DGLA, ^13C5-AA, with ALA-d14 as the internal standard. Briefly describing the LC-MS/MS method: 20 μl of sample was injected onto a Poroshell 120 EC-C18 3.0×50 mm, 1.9 μm id column. Mobile phases were 80% acetonitrile containing 5 mM ammonium acetate for mobile phase A and 99.5% acetonitrile containing 5 mM ammonium acetate for mobile phase B. The LC gradient was a 3 min long method at a flow rate of 0.4 mL/minute consisting of 45% B at 0 to 0.5 min, followed by a 45% B to 100% B from 0.5 to 2.0 min; the system was then maintained at 100% B from 2.0 min to 2.5 min and returned to 45% B at 2.6 min and maintained until end of the method. The analyte peak areas were quantified by using the SCIEX Analyst software. To determine the degree of FADS1 inhibition, the in vivo FADS1 activity, POC, percent of inhibition, and in vivo IC50 values are calculated as described above for liver FADS1 activity measurement.

For experiment [3] the following is noted: HFD-fed DIO C57BL/6J mice; cited from earlier work.
For experiment [4] the following is noted: C57BL/6 DIO mice; cited from earlier work.

`O=c1c(-c2ccc(OCC(F)(F)F)cc2)c(C(F)(F)F)nc2cc(CO)ccn12` [Compound D]: on FADS1 [1], the “Liver Avg % Conversion” value is given as 34.5% and the inhibition (commonly the share of the control response that was lost under treatment) at 30 mg/kg is 58.7%. Besides, the “Plasma Avg % Conversion” value on FADS1 [2] is reported as 25.1%. Also, on FADS1 [2] (mouse), the inhibition at 30 mg/kg came to 58.3%.

Consider `COc1ccn2c(=O)c(-c3ccc(O[C@H](C)C#N)cc3)c(C(F)(F)F)nc2n1` [Compound E], for which, at FADS1 [1], the “Liver Avg % Conversion” value was determined as 78.7% and the inhibition at 30 mg/kg came to 5.8%. Also, the “Plasma Avg % Conversion” value on FADS1 [2] is given as 58.1%. In addition, the inhibition at 30 mg/kg on FADS1 [2] (mouse) came to 3.7%.

Consider `O=c1c(-c2cnn(CC(F)(F)C(F)(F)F)c2)c(C(F)(F)F)nc2cc(OCF)ccn12` [Compound F], for which, on FADS1 [2] (blood plasma, unbound plasma concentration), the “Free (unbound) in vivo IC95” value is 16.4 nM. Also, on FADS1 [2] (blood plasma, unbound plasma concentration, read-out: Free (unbound) in vivo IC50), the half-maximal inhibitory concentration (IC50) (as a rule, the concentration that gives 50% inhibition) was determined as 5.62 nM. In addition, on FADS1 [2] (mouse, blood plasma, unbound plasma concentration, read-out: Free (unbound) in vivo IC90), the IC90 (as a rule, the concentration at which the effect reaches the 90% level) stood at 12.4 nM.

As to `COc1ccc2c(c1)c(CC(=O)O)c(C)n2C(=O)c1ccc(Cl)cc1` [indomethacin], in experiment [3], the body weight result is given as “reduce body weight” and the insulin sensitivity result is listed as “improve insulin sensitivity”.

Consider `Cc1c(C(=O)NN2CCCCC2)nn(-c2ccc(Cl)cc2Cl)c1-c1ccc(Cl)cc1` [rimonabant], for which, in experiment [4], the adipose tissue inflammation result is recorded as “reduced adipose tissue inflammation”, the body weight entry is “reduce body weight” and the physical activity entry was “increased physical activity only in the light cycle”.
